The target in one experiment is T1, CD40 (Mus musculus, UniProt P27512).
T1 construct: endogenous in cells
The experiment is described as follows: Cross-priming of E1B-specific CTLs in mice immunized with Ad5E1-BALB/c MECs, CD40 activation replacing CD4+ T help. It counts as in vivo. As to conditions: CD4-depleted mice after immunization; LPS 50 μg intravenous; IL-2 1×10^5 units in IFA subcutaneous (not shown).
Source text: (§1) Each line represents one mouse.
as §1

A further experiment concerns E1A-specific CTL clone. Put plainly: Spleen cells of peptide-injected mice as stimulator cells for an E1A-specific CTL clone ([3H]-thymidine incorporation). It counts as cell-based, C57BL/6 mice. As to conditions: splenocytes isolated 16 h after s.c. injection of 100 μg peptide in IFA. As to the method: Spleen cells derived from untreated C57BL/6 mice (−), or from mice injected s.c. 16 h earlier with 100 μg of E1A- or HPV16 E7-peptide in IFA were used as stimulator cells for an E1A-specific CTL clone. [^3H]-thymidine incorporation (cpm) +/−S. E. M. is shown for different effector to stimulator concentrations,. without subtraction of background counts. Results are representative of 5 independent experiments.
Spleen cells from these mice were isolated 16h later and used as stimulator cells for an E1A-specific CTL clone in vitro.

Another experiment concerns E1A-specific CTL. Put plainly: E1A-peptide in IFA with in vivo CD40-triggering: E1A-specific CTL cytotoxicity and Db/E1A tetramer staining. Also on record: species or system C57BL/6 mice. As to conditions: spleen of vaccinated mice. From the text:
Since CD4^+ T cell-mediated helper activity has been implicated in the prevention of peripheral CTL tolerance induction, the inventors addressed the question whether CD40-triggering in vivo is sufficient to prevent peripheral E1A-specific CTL tolerization.

Experiment [1] concerns HPV16 transformed syngeneic cells (TC-1). Put plainly: Therapy of HPV16 E6/E7 transformed tumor cells (TC-1) by peptide plus in vivo CD40 triggering. On the set-up: species or system C57BL/6 mice. As to conditions: treated 6 days after s.c. injection of 25.000 TC-1 cells; 100 μg peptide i.p. in IFA; n=10. As for the experimental part: Mice were injected s.c with 25.000 HPV16 transformed syngeneic cells (TC-1). C57BL/6 mice were left untreated (-◯-) or after 6 days received 100 μg HPV16 E7-peptide i.p. in IFA (-□-), 100 μg HPV16 E7-peptide i.p. in IFA in combination with the anti-CD40 mAb FGK-45 (-▪-) or a control peptide i.p. in IFA in combination with the anti-CD40 mAb FGK-45 (-●-). The percentage of tumor bearing mice is depicted for different treatment groups (n=10) in (a). The differences between the group treated with the HPV16-peptide plus the anti-CD40 mAb and the other three groups were statistically significant (p<0.01) (Log-Rank test). In (b) the percentage of surviving animals is shown (E7-peptide-treated group vs E7-peptide plus anti-CD40-treated group: p=0.002, Log-Rank test).
It was examined whether CD40-triggering in vivo is beneficial to the outcome of vaccination with an HPV16 E7-derived peptide.

Experiment [2] shares this test system. As to conditions: preventive vaccination with peptide, prior knowledge; cited from earlier work.

This is an account of results in patent US7563445B2, “CD40 binding molecules and CTL peptides for treating tumors” (priority 1998, dated 2009).

T1 sequence (P27512 20-289): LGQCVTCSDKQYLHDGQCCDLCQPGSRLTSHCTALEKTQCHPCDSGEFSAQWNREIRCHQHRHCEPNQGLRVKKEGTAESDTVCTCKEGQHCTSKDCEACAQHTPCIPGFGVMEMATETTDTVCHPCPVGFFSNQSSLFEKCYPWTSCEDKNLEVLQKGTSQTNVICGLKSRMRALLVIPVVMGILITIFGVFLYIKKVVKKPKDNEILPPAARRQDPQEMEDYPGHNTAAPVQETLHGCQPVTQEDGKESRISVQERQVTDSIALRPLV

Regarding bacterial lipopolysaccharide [LPS], on CD40, the “E1B-specific CTL activity / CTL priming” value is reported as “neither LPS or IL-2 treatment resulted in detectable CTL priming”.
With “SGPSNTPPEI (Human Adenovirus E1A derived peptide) [E1A-peptide]”, the “Proliferation of E1A-specific CTL clone on splenocytes” value with E1A-specific CTL clone is on record as “induced specific proliferation”. For the same substance, the “Percentage of CD8+ cells that stained with the Db/E1A tetramers” value with E1A-specific CTL is recorded as “approximately 3%”.
As to “RAHYNIVTF (Human Papilloma Virus Type 16 E7 derived peptide) [E7-peptide]”, the “Proliferation of E1A-specific CTL clone on splenocytes” value in the experiment on E1A-specific CTL clone is on record as “failed to do so”. Besides, in experiment [1], the “Tumor growth / outgrowth” value was “able to slow down tumor growth, but eventually most animals succumb to the tumor”. In addition, the “Immunity against a challenge with HPV16-transformed tumor cells” value in experiment [2] is on record as “induces protective CTL-mediated immunity”.
